Laboratory results published in patent US8178512B2, “Methods and compositions for treating diseases and disorders associated with siglec-8” (Johns Hopkins University, priority 2004, dated 2012).
“And” between values parts separate entries of the source, which are not always exact repeats. Equal values may be shown once. “Also recorded” adds a separate entry of the source. Read-outs that look alike come from different tables or passages of the source.

Key:
Siglec-8-Ig [1] = biological target: T1, Siglec-8-Ig (Homo sapiens, UniProt Q9NYZ4); assay: Siglec-8-Ig binding affinity by surface plasmon resonance (SPR), biotinylated glycosides on streptavidin sensor chip; conditions: for Siglec-8-Ig binding by SPR (in words): LacNAc reference surface; for Siglec-8-Ig binding by SPR (in words) / Kd: SPR; for Kd: 25° C., equilibrium binding, Siglec-8-Ig 0.1-18 uM, read-out: dissociation constant (Kd) of Siglec-8-Ig binding
T1 construct: The extracellular domain of Siglec-8 was inserted in frame with a Factor Xa cleavage site and the Fc portion of human IgG1; made in house; host or cells: CHOEA1 cells (electroporated), purified from supernatants on Protein A Sepharose
Method: (§1) The extracellular domain of Siglec-8 was inserted in frame with a Factor Xa cleavage site and the Fc portion of human IgG1, expanded in electroporated CHOEA1 cells, and then purified from supernatants (final concentration: 2.4 mg/ml) using Protein A Sepharose as previously described (Kikly, K. K., Bochner, B. S., Freeman, S., Tan, K. B., Gallagher, K. T., D'Alessio, K., Holmes, S. D., Abrahamson, J., Hopson, C. B., Fischer, E. I., Erickson-Miller, C. L., Tachimoto, H., Schleimer, R. P., and White, J. R. (2000) J. Allergy Clin. Immunol. 105, 1093-1100).
All SPR experiments were performed at 25° C. on a Biacore 3000 instrument (Biacore Inc., Piscataway, N.J.). Biotinylated glycosides were captured on research grade streptavidin (SA) coated sensor chips (Sensor Chip SA, Biacore) that were pre-treated according to the manufacturer's instructions. A solution of each biotinylated glycoside (10 fmol/μl) was injected at 2 μl/min in PBS (pH 7.4) containing 0.005% Tween-20 (running buffer) for varying lengths of time (3-7 minutes) until an optimal amount of glycan was captured on each independent surface. Three related glycosides were studied using one SA sensor chip. […] Increasing concentrations of Siglec-8-Ig (0.1-18 uM) were injected at a flow rate of 60 μl/min over all four surfaces of the sensor chip. […] The equilibrium binding data of Siglec-8-Ig were analyzed by non-linear curve fitting using the BIAevaluation software (Biacore Inc.).
The binding affinities of Siglec-8 for #108, #182 and #181 (FIGS. 3A-C, respectively) were determined on a Biacore B3000 instrument using a streptavidin-coated sensor chip. LacNAc glycoside was captured on one surface of the sensor chip and used as negative control (data not shown).

[2] = biological target: T2, Siglec-8-Ig fusion protein (Homo sapiens, UniProt Q9NYZ4); assay: Glycan array screening: Siglec-8-Ig binding to biotinylated glycosides on streptavidin-coated 384-well plates; conditions: 172 structures screened
T2 construct: The extracellular domain of Siglec-8 was inserted in frame with a Factor Xa cleavage site and the Fc portion of human IgG1; made in house; host or cells: CHOEA1 cells (electroporated), purified from supernatants on Protein A Sepharose
Method: as §1
Biotinylated glycosides (Korchagina, E., and Bovina, N. V. (1992) Bioorg Khim 18, 283-298) were coated in replicates of n=3 or n=4 on streptavidin-coated microtiter plates (Pierce Reacti-Bind™ NeutrAvidin™ Coated High Binding Capacity Black 384-Well Plates, Product #15513, Rockford, Ill.). Each well was incubated overnight at 4° C. with 30 pmol/well of glycoside in 25 ul phosphate buffered saline (PBS), pH 7.4. The plates were washed three times with 100 ul PBS using an automated plate washer (Molecular Devices, Sunnyvale, Calif.) and stored sealed at 4° C. in 25 ul/well PBS with 0.1% azide until use. Prior to assay, the plates were washed three times with 100 ul/well wash buffer (20 mM Tris-HCl pH 7.4, 150 mM NaCl, 2 mM CaCl2, 2 mM MgCl2 and 0.05% Tween 20). A stock solution of Siglec-8-Ig (30 ug/ml) was added to each well in 25 ul binding buffer (wash buffer plus 1% BSA) and incubated at room temperature for one hour. The plates were washed three times with 100 ul/well wash buffer and incubated for one hour with 25 ul/well goat anti-human IgG-Alexa 488 (Molecular Probes, Cat. No. A11013, Eugene, Oreg.) at 5 ug/ml in binding buffer. The plates were washed and read in 25 ul wash buffer on a Victor 2™ 1420 Multilabel Counter (PerkinElmer Life Sciences, Fremont, Calif.) at excitation 485/emission 535. The current version of the Consortium glycan array can be viewed at:
(http://www.functionalglycomics.org/static/consortium/resources/resourcecoreh.shtml), experiments were initiated to identify compounds that selectively and specifically bind to Siglec-8. Using Siglec-8-Ig fusion protein, a panel of 172 carbohydrate-based structures (see Table 1) was screened for specific Siglec-8 binding. […] The spacer arm itself, —O(CH2)3NH—CO(CH2)5NH-Biotin, found on many of the other non-binding structures, cannot explain the binding activity for Siglec-8.

Siglec-8-Ig [3] = biological target: T1, Siglec-8-Ig; assay: Binding of Siglec-8-Ig to aminoalkyl glycosides immobilized on activated (N-hydroxysuccinimidyl) glass surfaces; conditions: highest concentration tested 300 pmol/spot
Source text: A description of the printing and evaluation of the full array in this format has been submitted elsewhere (Ola Blixt, Steve Head, Tony Mondala, Christopher Scanlan, Margaret E. Huflejt, Richard Alvarez, Marian C. Bryan, Fabio Fazio, Daniel Calarese, James Stevens, Nahid Razi, David J. Stevens, John J. Skehel, Irma van Die, Dennis Burton, Ian A. Wilson, Richard Cummings, Nicolai Bovin, Chi-Huey Wong, and James C. Paulson ([…]) Proc. Natl. Acad. Sci. USA 101, 17033-17038). FITC-labeled goat anti-human IgG (Fc specific) was from Jackson Immunoresearch (West Grove, Pa.). […]
A solution of 100 μg/ml Siglec-8-Ig and 50 μg/ml FITC-labeled goat anti-human IgG (Fc-specific) in Dulbecco's PBS containing 0.005% Tween 20 was incubated for 30 min at 37° C. to allow complexes to form. […] An image of the bound fluorescence was obtaining using a microarray scanner (ScanArray Express, PerkinElmer Life Sciences, Boston, Mass.). The integrated spot intensities were determined using Metamorph software (Universal Imaging, Downingtown, Pa.). […]

[4] = tested on: Siglec-G-Ig fusion protein; conditions: Consortium website; cited from earlier work
Siglec-F = biological target: T3, Siglec-F (Mus musculus, UniProt Q920G3); conditions: Consortium website; cited from earlier work
T3 sequence (Q920G3 17-569): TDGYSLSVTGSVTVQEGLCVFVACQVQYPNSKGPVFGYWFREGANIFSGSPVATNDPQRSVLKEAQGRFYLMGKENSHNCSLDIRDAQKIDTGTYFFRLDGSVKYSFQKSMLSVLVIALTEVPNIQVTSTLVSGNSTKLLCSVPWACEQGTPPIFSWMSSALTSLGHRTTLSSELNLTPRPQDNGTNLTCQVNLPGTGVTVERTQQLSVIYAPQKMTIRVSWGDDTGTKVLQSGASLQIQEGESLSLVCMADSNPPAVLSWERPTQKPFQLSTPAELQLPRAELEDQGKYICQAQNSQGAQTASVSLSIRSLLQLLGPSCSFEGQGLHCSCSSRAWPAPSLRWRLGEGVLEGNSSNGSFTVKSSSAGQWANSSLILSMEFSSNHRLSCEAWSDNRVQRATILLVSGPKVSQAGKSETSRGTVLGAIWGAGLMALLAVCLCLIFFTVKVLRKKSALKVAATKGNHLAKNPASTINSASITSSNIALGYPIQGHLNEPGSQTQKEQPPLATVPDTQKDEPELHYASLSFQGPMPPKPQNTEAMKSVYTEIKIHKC

T1 sequence (Q9NYZ4 17-363 limits assumed): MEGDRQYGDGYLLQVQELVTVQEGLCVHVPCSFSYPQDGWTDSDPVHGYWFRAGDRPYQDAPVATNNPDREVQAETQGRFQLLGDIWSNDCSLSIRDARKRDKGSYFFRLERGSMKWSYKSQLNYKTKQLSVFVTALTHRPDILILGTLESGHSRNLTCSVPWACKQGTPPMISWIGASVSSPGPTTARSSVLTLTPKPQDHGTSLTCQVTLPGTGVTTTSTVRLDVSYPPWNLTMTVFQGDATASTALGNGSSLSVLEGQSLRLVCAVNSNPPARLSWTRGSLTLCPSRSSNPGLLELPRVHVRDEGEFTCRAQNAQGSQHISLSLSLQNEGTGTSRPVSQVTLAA
T2 sequence (Q9NYZ4 17-363 limits assumed): as above

With `CC(=O)N[C@H]1[C@H](OCCNC(=O)CCCCCNC(=O)CCCCCNC(=O)CCCC[C@@H]2SC[C@@H]3NC(=O)N[C@@H]32)O[C@H](CO)[C@@H](O[C@@H]2O[C@H](CO)[C@H](O)[C@H](O[C@]3(C(=O)O)C[C@H](O)[C@@H](NC(C)=O)[C@H]([C@H](O)[C@H](O)CO)O3)[C@H]2O)[C@@H]1O[C@@H]1O[C@@H](C)[C@@H](O)[C@@H](O)[C@@H]1O` [#108, NeuAcα2-3Galβ1-4(Fucα1-3)GlcNAcβ1-O(CH2)2NHCO(CH2)5NHCO(CH2)5NH-Biotin] the “Siglec-8-Ig binding by SPR (in words)” value (Siglec-8-Ig [1]; listed as sLe^x) was “failed to support detectable Siglec-8 binding; also recorded: No binding”, the “Siglec-8-Ig binding in glycan array (in words)” value ([2]; listed as sLe^x) was “failed to bind” and the “Siglec-8 binding to glycan immobilized on glass slide (in words)” value (Siglec-8-Ig [3]) was “did not support any Siglec-8 binding”.
In the case of `CC(=O)N[C@H]1[C@H](OCCCNC(=O)CCCCCNC(=O)CCCC[C@@H]2SC[C@@H]3NC(=O)N[C@@H]32)O[C@H](CO)[C@@H](O[C@@H]2O[C@H](COS(=O)(=O)O)[C@H](O)[C@H](O[C@]3(C(=O)O)C[C@H](O)[C@@H](NC(C)=O)[C@H]([C@H](O)[C@H](O)CO)O3)[C@H]2O)[C@@H]1O[C@@H]1O[C@@H](C)[C@@H](O)[C@@H](O)[C@@H]1O` [#181, NeuAcα2-3(6-O-sulfo)Galβ1-4(Fucα1-3)GlcNAcβ1-O(CH2)3NH—CO(CH2)5NH-Biotin], the “association and dissociation profiles (in words)” value (Siglec-8-Ig [1]; SPR sensorgrams) is reported as “very fast association and dissociation profiles”, the Kd (Siglec-8-Ig [1]; listed as 6′-sulfo-sLe^x) is reported as 2300 nM and 2200 to 2300 nM and the Kd (Siglec-8-Ig [1]) is reported as 2000 to 2500 nM. For the same compound, the “Siglec-8-Ig binding by SPR (in words)” value (Siglec-8-Ig [1]) was “specific binding”, the “Siglec-8-Ig binding by SPR (in words)” value (Siglec-8-Ig [1]; listed as 6′-sulfo-sLe^x) was “significant binding; also recorded: reproducible binding” and the “Siglec-8-Ig binding in glycan array (in words)” value [2] was “stands out among all the others for binding activity; also recorded: By far the greatest binding”. The “Siglec-8-Ig binding in glycan array (in words)” value ([2]; listed as 6′-sulfo-sLe^x) was “avid binding”, the “binding to Siglec-G-Ig fusion protein (in words)” value [4] was “failed to show specific binding” and the “binding to Siglec-F (in words)” value (Siglec-F) was “selectively binds”.
With `CC(=O)N[C@H]1[C@H](OCCCNC(=O)CCCCCNC(=O)CCCC[C@@H]2SC[C@@H]3NC(=O)N[C@@H]32)O[C@H](COS(=O)(=O)O)[C@@H](O[C@@H]2O[C@H](CO)[C@H](O)[C@H](O[C@]3(C(=O)O)C[C@H](O)[C@@H](NC(C)=O)[C@H]([C@H](O)[C@H](O)CO)O3)[C@H]2O)[C@@H]1O[C@@H]1O[C@@H](C)[C@@H](O)[C@@H](O)[C@@H]1O` [#182, NeuAcα2-3Galβ1-4(Fucα1-3)(6-O-Su)GlcNAcβ1-O(CH2)3NH—CO(CH2)5NH-Biotin] the “Siglec-8-Ig binding by SPR (in words)” value (Siglec-8-Ig [1]; listed as 6-sulfo-sLe^x) was “failed to support detectable Siglec-8 binding; also recorded: No binding”, the “Siglec-8-Ig binding in glycan array (in words)” value ([2]; listed as 6-sulfo-sLe^x) was “failed to bind” and the “Siglec-8 binding to glycan immobilized on glass slide (in words)” value (Siglec-8-Ig [3]) was “did not support any Siglec-8 binding”.
In the case of “Galβ1-4GlcNAc [LacNAc, reference compound]”, the “Siglec-8-Ig binding by SPR (in words)” value (Siglec-8-Ig [1]) is reported as “non-binding”.
